Assay results taken from patent publication US8562949B2, “Radiolabeled dihydrotetrabenazine derivatives and their use as imaging agents” (The Trustees of the University of Pennsylvania, priority 2006, dated 2013).
Several values for one entry are separate records, joined by “and”; a condition that tells them apart may be missing. Equal entries are not always repeated.

Columns and labels:
[1] = Biodistribution of [18F]6a and [18F]6b in normal mice (iv injection); type: in vivo, ICR mice
Protocol: While under isoflurane anesthesia, 0.15 mL of a 0.1% bovine serum albumin solution containing [^18F]tracers (10-20 μCi) were injected directly into the tail vein of ICR mice (22-25 g, male) The mice (n=3 for each time point) were sacrificed by cervical dislocation at indicated time points post injection. The organs of interest were removed and weighed, and the radioactivity was counted with an automatic gamma counter. The percentage dose per organ was calculated by a comparison of the tissue counts to suitably diluted aliquots of the injected material. Total activities of blood were calculated under the assumption that they were 7% of the total body weight. The % dose/g of samples was calculated by comparing the sample counts with the count of the diluted initial dose.

[2] = Human radiation dosimetry estimates from mouse biodistribution; conditions: adult male model
Description: From the organ biodistribution data in Table 4 of Example 7, human radiation dosimetry estimates were calculates. In the mass based extrapolation, the concentration in the animal organs is converted to a concentration in human organs by multiplying the animal concentration by a ratio of the total body weight of the animals and humans (Kirschner, et al., 1975). Then the percent in the human organs is derived using organ masses taken from a standard model of the human body for adult males (Cristy and Eckerman, 1987). Data were fit using the SAAM II software (Foster and Barrett, 1999). Time integrals of activity were calculated and converted to residence times (Loevinger, et al., 1988); organ residence times were entered into the OLIND/EXM software (STabin, et al., 2005) using the adult male model. No excretion of activity was assumed; any activity not accounted for was considered to be uniformly distributed throughout the remainder of the body or removed only by physical decay. […] The estimated effective dose (0.047 rem/mCi) also compares favorably to radiation doses received with other approved radiopharmaceuticals.

COc1cc2c(cc1OCCC[18F])CCN1CC(CC(C)C)C(O)CC21 (racemic) [[^18F]6b]
remaining in brain (brain washout) ([1]; 30 min p.i., normal mice): 13% | brain uptake ([1]; mice, iv, 2 min): 7.08 % ID/g | ST/CB ratio ([1]; mice, iv, time not stated): 3.0 | Organ distribution Blood ([1]; normal mice, iv, 2 min): 2.60 ± 0.31 % dose/g | Organ distribution Bone ([1]; normal mice, iv, 2 min): 2.70 ± 0.44 % dose/g | Organ distribution Brain ([1]; normal mice, iv, 2 min): 7.08 % dose/g and 7.08 ± 2.17 % dose/g | Organ distribution Heart ([1]; normal mice, iv, 2 min): 6.79 ± 1.49 % dose/g | Organ distribution Kidney ([1]; normal mice, iv, 2 min): 16.1 ± 3.13 % dose/g | Organ distribution Liver ([1]; normal mice, iv, 2 min): 24.1 ± 4.93 % dose/g | Organ distribution Lung ([1]; normal mice, iv, 2 min): 7.97 ± 1.46 % dose/g | Organ distribution Muscle ([1]; normal mice, iv, 2 min): 1.17 ± 0.16 % dose/g | Organ distribution Skin ([1]; normal mice, iv, 2 min): 1.13 ± 0.25 % dose/g | Organ distribution Spleen ([1]; normal mice, iv, 2 min): 9.19 ± 0.26 % dose/g | Ratio (vs CB) Cortex ([1]; normal mice, iv, 2 min): 1.32 | Ratio (vs CB) Hippocampus ([1]; normal mice, iv, 2 min): 1.13 | Ratio (vs CB) Striatum ([1]; normal mice, iv, 2 min): 1.36 | Regional brain distribution Cerebellum (CB) ([1]; normal mice, iv, 2 min): 6.26 ± 2.89 % dose/g | Regional brain distribution Cortex ([1]; normal mice, iv, 2 min): 8.25 ± 2.51 % dose/g | Regional brain distribution Hippocampus ([1]; normal mice, iv, 2 min): 7.07 ± 1.66 % dose/g | Regional brain distribution Striatum ([1]; normal mice, iv, 2 min): 8.49 ± 1.12 % dose/g | Organ distribution Blood ([1]; normal mice, iv, 15 min): 1.75 ± 0.07 % dose/g | Organ distribution Bone ([1]; normal mice, iv, 15 min): 3.65 ± 0.49 % dose/g | Organ distribution Brain ([1]; normal mice, iv, 15 min): 2.01 ± 0.10 % dose/g | Organ distribution Heart ([1]; normal mice, iv, 15 min): 2.43 ± 0.16 % dose/g | Organ distribution Kidney ([1]; normal mice, iv, 15 min): 5.90 ± 0.25 % dose/g | Organ distribution Liver ([1]; normal mice, iv, 15 min): 15.8 ± 1.65 % dose/g | Organ distribution Lung ([1]; normal mice, iv, 15 min): 3.58 ± 0.33 % dose/g | Organ distribution Muscle ([1]; normal mice, iv, 15 min): 1.16 ± 0.35 % dose/g | Organ distribution Skin ([1]; normal mice, iv, 15 min): 1.15 ± 0.16 % dose/g | Organ distribution Spleen ([1]; normal mice, iv, 15 min): 3.38 ± 0.49 % dose/g | Ratio (vs CB) Cortex ([1]; normal mice, iv, 15 min): 1.00 | Ratio (vs CB) Hippocampus ([1]; normal mice, iv, 15 min): 1.31 | Ratio (vs CB) Striatum ([1]; normal mice, iv, 15 min): 2.53 | Regional brain distribution Cerebellum (CB) ([1]; normal mice, iv, 15 min): 1.63 ± 0.05 % dose/g | Regional brain distribution Cortex ([1]; normal mice, iv, 15 min): 1.62 ± 0.05 % dose/g | Regional brain distribution Hippocampus ([1]; normal mice, iv, 15 min): 2.14 ± 0.16 % dose/g | Regional brain distribution Striatum ([1]; normal mice, iv, 15 min): 4.12 ± 0.52 % dose/g | Organ distribution Blood ([1]; normal mice, iv, 30 min): 1.92 ± 0.22 % dose/g | Organ distribution Bone ([1]; normal mice, iv, 30 min): 9.62 ± 3.42 % dose/g | Organ distribution Brain ([1]; normal mice, iv, 30 min): 1.76 ± 0.27 % dose/g | Organ distribution Heart ([1]; normal mice, iv, 30 min): 2.67 ± 0.26 % dose/g | Organ distribution Kidney ([1]; normal mice, iv, 30 min): 6.80 ± 0.65 % dose/g | Organ distribution Liver ([1]; normal mice, iv, 30 min): 17.3 ± 2.00 % dose/g | Organ distribution Lung ([1]; normal mice, iv, 30 min): 3.46 ± 0.36 % dose/g | Organ distribution Muscle ([1]; normal mice, iv, 30 min): 1.53 ± 0.16 % dose/g | Organ distribution Skin ([1]; normal mice, iv, 30 min): 2.22 ± 0.20 % dose/g | Organ distribution Spleen ([1]; normal mice, iv, 30 min): 3.40 ± 0.43 % dose/g | Ratio (vs CB) Cortex ([1]; normal mice, iv, 30 min): 1.11 | Ratio (vs CB) Hippocampus ([1]; normal mice, iv, 30 min): 1.97 | Ratio (vs CB) Striatum ([1]; normal mice, iv, 30 min): 3.0 and 2.95 | Regional brain distribution Cerebellum (CB) ([1]; normal mice, iv, 30 min): 1.30 ± 0.19 % dose/g | Regional brain distribution Cortex ([1]; normal mice, iv, 30 min): 1.45 ± 0.38 % dose/g | Regional brain distribution Hippocampus ([1]; normal mice, iv, 30 min): 2.55 ± 1.20 % dose/g | Regional brain distribution Striatum ([1]; normal mice, iv, 30 min): 3.84 ± 1.05 % dose/g | Organ distribution Bone ([1]; normal mice, iv, 30 min, listed as [^1F]6b): 9.62 % dose/g | Organ distribution Blood ([1]; normal mice, iv, 1 hr): 1.04 ± 0.07 % dose/g | Organ distribution Bone ([1]; normal mice, iv, 1 hr): 16.6 ± 1.60 % dose/g | Organ distribution Brain ([1]; normal mice, iv, 1 hr): 0.91 ± 0.25 % dose/g | Organ distribution Heart ([1]; normal mice, iv, 1 hr): 1.74 ± 0.14 % dose/g | Organ distribution Kidney ([1]; normal mice, iv, 1 hr): 3.63 ± 0.30 % dose/g | Organ distribution Liver ([1]; normal mice, iv, 1 hr): 10.4 ± 0.95 % dose/g | Organ distribution Lung ([1]; normal mice, iv, 1 hr): 2.15 ± 0.12 % dose/g | Organ distribution Muscle ([1]; normal mice, iv, 1 hr): 1.05 ± 0.41 % dose/g | Organ distribution Skin ([1]; normal mice, iv, 1 hr): 1.38 ± 0.03 % dose/g | Organ distribution Spleen ([1]; normal mice, iv, 1 hr): 2.05 ± 0.05 % dose/g | Ratio (vs CB) Cortex ([1]; normal mice, iv, 1 hr): 1.10 | Ratio (vs CB) Hippocampus ([1]; normal mice, iv, 1 hr): 1.35 | Ratio (vs CB) Striatum ([1]; normal mice, iv, 1 hr): 2.71 | Regional brain distribution Cerebellum (CB) ([1]; normal mice, iv, 1 hr): 0.77 ± 0.06 % dose/g | Regional brain distribution Cortex ([1]; normal mice, iv, 1 hr): 0.85 ± 0.12 % dose/g | Regional brain distribution Hippocampus ([1]; normal mice, iv, 1 hr): 1.04 ± 0.16 % dose/g | Regional brain distribution Striatum ([1]; normal mice, iv, 1 hr): 2.08 ± 0.27 % dose/g | Organ distribution Blood ([1]; normal mice, iv, 2 hr): 0.56 ± 0.07 % dose/g | Organ distribution Bone ([1]; normal mice, iv, 2 hr): 17.8 ± 1.83 % dose/g | Organ distribution Brain ([1]; normal mice, iv, 2 hr): 0.53 ± 0.05 % dose/g | Organ distribution Heart ([1]; normal mice, iv, 2 hr): 1.02 ± 0.09 % dose/g | Organ distribution Kidney ([1]; normal mice, iv, 2 hr): 2.40 ± 0.51 % dose/g | Organ distribution Liver ([1]; normal mice, iv, 2 hr): 8.53 ± 1.73 % dose/g | Organ distribution Lung ([1]; normal mice, iv, 2 hr): 1.40 ± 0.09 % dose/g | Organ distribution Muscle ([1]; normal mice, iv, 2 hr): 0.56 ± 0.11 % dose/g | Organ distribution Skin ([1]; normal mice, iv, 2 hr): 1.24 ± 0.53 % dose/g | Organ distribution Spleen ([1]; normal mice, iv, 2 hr): 1.15 ± 0.41 % dose/g | Ratio (vs CB) Cortex ([1]; normal mice, iv, 2 hr): 0.91 | Ratio (vs CB) Hippocampus ([1]; normal mice, iv, 2 hr): 1.12 | Ratio (vs CB) Striatum ([1]; normal mice, iv, 2 hr): 1.94 | Regional brain distribution Cerebellum (CB) ([1]; normal mice, iv, 2 hr): 0.45 ± 0.01 % dose/g | Regional brain distribution Cortex ([1]; normal mice, iv, 2 hr): 0.41 ± 0.06 % dose/g | Regional brain distribution Hippocampus ([1]; normal mice, iv, 2 hr): 0.50 ± 0.06 % dose/g | Regional brain distribution Striatum ([1]; normal mice, iv, 2 hr): 0.87 ± 0.24 % dose/g

COc1cc2c(cc1OCCC[18F])CCN1C[C@@H](CC(C)C)[C@H](O)C[C@H]21 [[^18F]-(+)-6b]
human radiation dose, liver and bone surface [2]: around 0.11 rem/mCi | human radiation dose, most organs [2]: 0.04-0.06 rem/mCi
